Measurements taken from patent US20250019389A1, “HETEROCYCLIC AGONISTS” (Gasherbrum Bio, Inc., priority 2023, published 2025).

These compounds were tested against GLP-1 Receptor (Homo sapiens (Human), UniProt P43220) (assay: GLP-1R agonist cAMP stimulation assay). Details: cAMP stimulation in HEK293/GLP1R/CRE-LUC cells, 30 min at 37° C., cAMP dynamic 2 Kit (Cisbio).
Assay type: cell-based
Procedure: Activation of GLP-1 receptor is known to stimulate cyclic AMP (cAMP) production in cells which indicates primary coupling to the G as subunit of the G protein heterotrimeric complex.
To optimize functional activity directed toward G αs coupling, a HEK293/CRE-Luc cell line developed by HDB stably expressing the GLP-1 Receptor was used. 200× concentration of compound working solutions were prepared (Agilent Technologies Bravo) with ½ log serial dilution in 384-well Echo LDV plate (Labcyte, Cat #LP-0200). 50 nL/well 200× concentration of compound working solutions were moved to 384-well white low volume plate (Greiner, Cat #784075) using Labcyte ECH0550.1×10^5 cells/mL HEK293/GLP1R/CRE-LUC (HD Biosciences) cell suspensions prepared with assay buffer [DPBS containing 0.5 mM IBMX (Sigma, Cat #I5879) and 0.1% BSA (GENVIEW, Cat #FA016-100 g)], 10 μL cell suspensions were added to each well of previous generated assay plate which already contains 50 nL compound at 200× concentration using ThermoFisher Multidrop Combi (1000 cells/well). Seal the plate and incubate at 37° C. with 5% CO2 for 30 min.
After incubation the cAMP assay signal was generated using cAMP dynamic 2 Kit (Cisbio). 5 μL cAMP-d2 working solution was added to each well, followed with 5 μL Anti-cAMP antibody-cryptate working solution added to each well using ThermoFisher Multidrop Combi. Incubate at room temperature for 1 hour protected from light. Read the fluorescence at 665 and 615 nm with Reader PerkinElmer EnVision.

Sequence of GLP-1 Receptor (P43220 24-463, species assumed): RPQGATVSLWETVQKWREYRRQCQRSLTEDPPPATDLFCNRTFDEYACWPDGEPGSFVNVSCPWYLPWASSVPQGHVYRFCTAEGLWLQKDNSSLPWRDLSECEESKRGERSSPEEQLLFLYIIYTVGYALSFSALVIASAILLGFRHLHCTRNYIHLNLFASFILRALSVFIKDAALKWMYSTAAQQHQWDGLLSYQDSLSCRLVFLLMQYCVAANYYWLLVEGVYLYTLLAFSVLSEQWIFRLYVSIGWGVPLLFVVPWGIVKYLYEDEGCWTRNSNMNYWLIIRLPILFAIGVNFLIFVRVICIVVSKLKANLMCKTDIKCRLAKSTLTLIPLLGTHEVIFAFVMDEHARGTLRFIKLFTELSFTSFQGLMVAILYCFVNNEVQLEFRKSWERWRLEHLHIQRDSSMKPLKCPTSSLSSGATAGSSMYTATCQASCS

Row | SMILES | EC50 [nM]
1 | CCP(=O)(CCO)c1ccc(-n2ccn(-c3c4c(nn3-c3cc(C)c(F)c(C)c3)CCN(C(=O)c3cc5cc(C6CCOCC6)ccc5n3[C@@]3(c5noc(=O)[nH]5)C[C@@H]3C)[C@H]4C)c2=O)cc1NC (single isomer, unassigned) [Compound 102] | 0.017
2 | CCP(=O)(CCO)c1ccc(-n2ccn(-c3c4c(nn3-c3cc(C)c(F)c(C)c3)CCN(C(=O)c3cc5cc(C6CCOCC6)ccc5n3[C@@]3(c5noc(=O)[nH]5)C[C@@H]3C)[C@H]4C)c2=O)cc1NC (single isomer, unassigned) [Compound 103] | 0.012
3 | CCP(=O)(c1ccc(-n2ccn(-c3c4c(nn3-c3cc(C)c(F)c(C)c3)CCN(C(=O)c3cc5cc(C6CCOCC6)ccc5n3[C@@]3(c5noc(=O)[nH]5)C[C@@H]3C)[C@H]4C)c2=O)cc1NC)C(C)O (single isomer, unassigned) [Compound 105] | 0.035
4 | CCP(=O)(c1ccc(-n2ccn(-c3c4c(nn3-c3cc(C)c(F)c(C)c3)CCN(C(=O)c3cc5cc(C6CCOCC6)ccc5n3[C@@]3(c5noc(=O)[nH]5)C[C@@H]3C)[C@H]4C)c2=O)cc1NC)C(C)O (single isomer, unassigned) [Compound 106] | 0.029
5 | CCP(=O)(c1ccc(-n2ccn(-c3c4c(nn3-c3cc(C)c(F)c(C)c3)CCN(C(=O)c3cc5cc(C6CCOCC6)ccc5n3[C@@]3(c5noc(=O)[nH]5)C[C@@H]3C)[C@H]4C)c2=O)cc1NC)C(C)O (single isomer, unassigned) [Compound 107] | 0.042
6 | CCP(=O)(c1ccc(-n2ccn(-c3c4c(nn3-c3cc(C)c(F)c(C)c3)CCN(C(=O)c3cc5cc(C6CCOCC6)ccc5n3[C@@]3(c5noc(=O)[nH]5)C[C@@H]3C)[C@H]4C)c2=O)cc1NC)C(C)O (single isomer, unassigned) [Compound 108] | 0.031
